Measurements as given in patent publication US20250367229A1, “Treatment of Immune-Related Disorders, Kidney Disorders, Liver Disorders, Hemolytic Disorders, and Oxidative Stress-Associated Disorders Using NRH, NARH and Reduced Derivatives Thereof” (MitoPower LLC, priority 2021, published 2025).

What was measured:
[1] = test system: peripheral blood mononuclear cells (PBMCs); test: Extracellular acidification rate (ECAR, a measure of glycolysis) in activated PBMCs, Seahorse XF; format: cell-based, human; conditions: 250 μM, 4 hr, PBMCs stimulated with anti-CD3 and anti-CD28 antibodies
Protocol: PBMCs (1.5×10^6) obtained from a healthy human adult donor were unstimulated or stimulated with anti-CD3 and anti-CD28 antibodies (1 μg/mL each) to induce T-cell activation, in the absence or presence of 250 μM NRH for 4 hr. The cells were then washed and plated on poly-D-lysine-coated Seahorse XF microplates at a density of 3×10^5 cells per well (5 replicates). The plates were centrifuged briefly and incubated at 37° C. in a non-CO2 incubator for 30 min to settle the cells in the bottom of the plate. Extracellular acidification rate (ECAR, a measure of glycolysis) and oxygen consumption rate (OCR, a measure of oxidative phosphorylation) were determined using a Seahorse XF cell mito stress test kit and a Seahorse Xfe96 analyzer (Agilent Technologies, Santa Clara, California) under basal condition or in response to 1.0 μM oligomycin (an inhibitor of ATP synthase), 1.5 μM carbonyl cyanide-p-trifluoromethoxyphenylhydrazone (FCCP, a mitochondrial uncoupler), 0.5 μM rotenone (an inhibitor of electron transport at complex I) and antimycin A (an inhibitor of electron transport at cytochrome c reductase). PBMCs include monocytes and lymphocytes including T cells, B cells and natural killer cells.

[2] = test system: HEK293 cells; test: NADH/NAD+ ratio in H2O2-exposed HEK293 cells (NAD/NADH-Glo); format: cell-based; conditions: NRH at 100 and 1000 μM, NR at all tested concentrations (0.01-1000 μM)
Protocol: HEK293 cells were trypsinized and plated at a density of 60,000 cells per well. The cells were then treated with H2O2 (600 μM prepared with Dulbecco's Modified Eagle Medium [DMEM]) for 30 min. The media was then replaced with serum media (DMEM supplemented with 10% fetal bovine serum [FBS]) containing NRH or NR, and were incubated at 37° C. under 6% CO2 for 30 min or 6 hr. The cells were incubated with the following concentrations of NRH or NR: 0.01, 0.1, 1.0, 10, 100 and 1000 μM. NAD^+ and NADH levels at 30 min and 6 hr were estimated using the NAD/NADH-Glo Promega Bioluminescent assay. The results were expressed as fold change relative to the values obtained with untreated cells.

[3] = Stability in human serum in vitro (absorbance over time); format: in vitro ADME; conditions: 100 μM, 37° C.
Protocol: Three blood samples were collected from healthy human donors with the same blood group in serum separator vacutainer gel tubes. The samples were centrifuged at 1,800 g to separate serum. The serum samples obtained were pooled together into a separate tube.
NR, NRH and NRH-triacetate (NRHTA) were initially dissolved in DMSO and then diluted with normal saline to obtain a 1 mM stock solution of each compound. 100 μL of stock solution was added to 900 μL of pooled serum to assess the stability of the test compound in human serum. 200 μL of saline with 1,800 μL of pooled serum was used to prepare a solution for blanking and as a reference measurement. The stock solutions were diluted in the pooled serum and normal saline to prepare 100 μM solutions of the test compounds.
In previous experiments, spectral scans between 190 nm and 1100 nm were performed to determine absorbance maxima for NR, NRH and NRHTA, which have maximal absorbance at 265 nm, 340 nm and 331 nm, respectively, in solution.
The stability of a test compound in human serum was determined by a change in the concentration of the compound as measured by a change in absorbance at the maximal absorbance wavelength for the compound as a function of time. The test compounds at 100 μM were incubated in human serum at 37° C. Absorbance measurements were made at 0 min (T0), 5 min, 30 min, 120 min, 240 min, 360 min and 1440 min (24 hr). The relative change in absorbance compared to T0 was plotted and used for statistical analysis. The analysis was performed in triplicates.

[4] = test system: RBC hemoglobin; test: H2O2-induced oxidative changes of RBC hemoglobin in vitro (spectral scans); format: cell-based, human
Protocol: A 4 M stock solution of sodium azide was prepared. One mL of the 4 M stock azide solution was diluted with 9 mL of phosphate-buffered saline (PBS, pH 7.4) to obtain a 0.4 M stock solution, which was further diluted with PBS to obtain a 0.01 M working solution of sodium azide. Eight mL of whole blood was collected in buffered acid citrate dextrose tubes from a healthy human donor. PBS was added to 500 μL of whole blood. The samples were centrifuged, and then the supernatant from each tube was discarded to obtain a red blood cell (RBC) pellet. Ten μL of 0.01 M sodium azide working solution was added to 20 μL of RBC suspension. Twenty μL of hydrogen peroxide (H2O2) diluted in PBS was added to the RBC suspension to obtain final concentrations of H2O2 ranging from 0.01 mM to 100 mM. The samples were incubated at 37° C. for 1.5 hr. 950 μL of de-ionized water was added to the samples, which were then incubated for 10 min to lyse the RBCs and obtain hemoglobin upon centrifugation at 1,500 g. Spectral scans of the lysed samples between 200 nm and 1100 nm were obtained in 2 nm increments, using a Systronics® dual-beam UV-spectrophotometer and de-ionized water as a blank. Samples incubated with PBS at 37° C. for 1-1.5 hr were used as controls to establish the oxidative effects of H2O2 on RBC hemoglobin. Absorbance at 576 nm is a measure of hemoglobin concentration in a sample, and oxidation of hemoglobin to methemoglobin results in a drop in absorbance at 576 nm and an increase in absorbance at 630 nm. Fantao et al., Anal. Biochem., 521:11-19, (2017). Stock solutions of NRH (29.6 mM) and NR (18.3 mM) were prepared in 0.9% normal saline. Appropriate quantities of the stock NRH or NR solution and PBS were added to 500 μL of whole blood to obtain final concentrations of NRH or NR ranging from 1 μM to 1000 μM. The whole blood samples with NRH or NR were mixed gently and incubated at 37° C. for 1-1.5 hr. The samples were centrifuged, and then the supernatant was discarded to obtain an RBC pellet for each sample.

[5] = test system: red blood cells (RBCs); test: H2O2-induced hemolysis in vitro; format: cell-based; conditions: 2000, 200 and 20 μM, pre-incubation 1 hr at 37° C., then H2O2 4 hr
Protocol: Individual test compounds were dissolved in 0.9% normal saline to prepare 0.3 M stock solutions. A 0.3 M stock solution was added to a 20% suspension of washed red blood cells (RBCs) in saline to obtain final concentrations of 2000 μM, 200 μM and 20 μM of the compound. The RBC suspensions were incubated with the test compound at 37° C. for 1 hr prior to testing. A 2.5% H2O2 solution was prepared fresh by dilution with normal saline and chilled at 2-8° C. before use. Each RBC suspension containing the test compound was split into tubes A and B. 250 μL of the chilled H2O2 solution was added to 250 μL of RBC suspension in each tube while maintaining the tubes in an ice bath. The tubes were incubated at 37° C. for 4 hr, and then 4.5 mL of saline or de-ionized water was added to tube A or tube B, respectively. After the tubes were incubated for 10 min, the mixture in the tubes was centrifuged at 1800 g, and then absorbance was measured in the supernatant at 540 nm. The percentage of hemolysis was calculated as: […]

[6] = test system: CD8^+ T cells; test: Ex vivo polyclonal immune activation model: intracellular cytokine production in CD8+ T cells (flow cytometry); format: cell-based, human; conditions: stimulated with anti-CD3 and anti-CD28 antibodies; data not shown
Protocol: (§1) Heparinized venous blood was collected from healthy human adult donors. Peripheral blood mononuclear cells (PBMCs) were isolated by Ficoll-Hypaque density-gradient centrifugation. PBMCs (1.0×10^6) were seeded in round-bottom, 96-well plates in 200 μL of medium, unstimulated or stimulated with an anti-CD3 antibody ([…], clone-HIT3a, Biolegend) plus an anti-CD28 antibody (1 μg/mL, clone-CD28.2, Biolegend) to induce T-cell activation, and incubated in cell-culture medium. The PBMCs were unstimulated or stimulated with anti-CD3 and anti-CD28 antibodies to induce T-cell activation, in the absence or presence of 250 μM NRH. After 18 hours of incubation, lymphocytes were analyzed for intracellular levels of IFN-γ, TNF-α and IL-2 by flow cytometry. Intracellular cytokine production was stopped by treating the cells with Golgi stop after 1 hr of treatment.

[7] = test system: CD4^+ T cells; test: Mitochondrial membrane depolarization (JC-1, flow cytometry) in CD4+ T cells; format: cell-based, human; conditions: 250 μM, 24 hr, unstimulated or stimulated with anti-CD3 and anti-CD28 antibodies
Protocol: (§2) PBMCs (10^6 cells per test group) obtained from healthy human adult donors were unstimulated or stimulated with anti-CD3 and anti-CD28 antibodies to induce T-cell activation, in the absence or presence of 250 μM of NRH or NRH-triacetate (NRHTA). Measurements were made at 5, 15 and 24 hr after treatment.
(§3) After the indicated time of incubation, the PBMCs were stained with anti-CD3, anti-CD4 and anti-CD8 antibodies (Biolegend), JC-1 (1 μM, Thermo Fisher) and annexin V (Thermo Fisher) prior to analysis by flow cytometry. Annexin V binds to cell-surface phosphatidylserine, which is a marker for different forms of cell death including apoptosis and necrosis. The stained cells were re-suspended in phosphate-buffered saline (PBS) and acquired in a Cytek Aurora flow cytometer using a FlowJo software (v10) for analysis. About 200,000-300,000 cells were acquired in the flow cytometer for analysis. Standard procedures for spectral compensation were performed to obtain cell populations. Lymphocytes identified by forward and side scatter were gated to obtain CD3^+/CD4^+ and CD3^+/CD8^+ T-cell populations. Those T-cell populations were gated to identify the red and green signals for JC-1 aggregate and monomer, respectively, and annexin V. The percentage of cells staining green by JC-1 monomer was used to determine the percentage of cells with depolarized mitochondria. […]

[8] = test system: CD4^+ T cells; test: Cell death including apoptosis (annexin V, flow cytometry) of CD4+ T cells with depolarized mitochondria; format: cell-based, human; conditions: 250 μM, 24 hr, unstimulated or stimulated with anti-CD3 and anti-CD28 antibodies
Protocol: as §2, §3

[9] = test system: CD8^+ T cells; test: Mitochondrial membrane depolarization (JC-1, flow cytometry) in CD8+ T cells; format: cell-based, human; conditions: 250 μM, 24 hr, unstimulated or stimulated with anti-CD3 and anti-CD28 antibodies
Protocol: as §2, §3

[10] = test system: CD4^+ T cells; test: Ex vivo polyclonal immune activation model: cytokine production in CD4+ T cells; format: cell-based, human; conditions: stimulated with anti-CD3 and anti-CD28 antibodies; data not shown
Protocol: as §1

[11] = test system: CD8^+ T cells; test: Cell death including apoptosis (annexin V, flow cytometry) of CD8+ T cells with depolarized mitochondria; format: cell-based, human; conditions: 250 μM, 24 hr, unstimulated or stimulated with anti-CD3 and anti-CD28 antibodies
Protocol: as §2, §3

Row | compound remaining intact in human serum within 5 min ([3]; within 5 min of addition, absorbance at 265 nm) | Structure (SMILES) | extracellular acidification rate (ECAR, a measure of glycolysis) in activated PBMCs [1] | NADH/NAD+ ratio in HEK293 cells exposed to H2O2 ([2]; 30 min of incubation) | NADH/NAD+ ratio in HEK293 cells exposed to H2O2 ([2]; 6 hr of incubation) | A576/A630 ratio (a measure of the hemoglobin/methemoglobin ratio) ([4]; RBCs exposed to 1 mM H2O2, 1 μM or 100 μM NRH, NR data not shown) | protection of hemoglobin from 1 mM H2O2-induced oxidative changes (amplitude of absorbance peaks at 576, 540, 434, 348 and 270 nm) ([4]; pre-incubation of RBCs with 1, 10 and 100 µM) | H2O2-induced hemolysis [5] | production of pro-inflammatory cytokines (e.g., TNF-α, IL-2, IFN-γ) by CD8+ T cells [6] | mitochondrial membrane depolarization in CD4+ T cells [7] | compound remaining intact in human serum after 6 hr ([3]; 6 hr) | compound remaining intact in human serum after 24 hr ([3]; 24 hr) | stability in human serum compared with NR ([3]; up to 24 hr, p<0.05) | cell death including apoptosis of CD4+ T cells with depolarized mitochondria [8] | mitochondrial membrane depolarization in CD8+ T cells [9] | production of pro-inflammatory cytokines (e.g., TNF-α, IL-2, IFN-γ) by CD4+ T cells [10] | cell death including apoptosis of CD8+ T cells with depolarized mitochondria [11]
1 | most of NR did not remain intact | NC(=O)c1ccc[n+]([C@@H]2O[C@H](CO)[C@@H](O)[C@H]2O)c1 [NR, nicotinamide riboside, reference compound] | Unlike NR (data not shown), NRH reduced glycolysis | did not significantly affect | did not significantly affect | did not significantly affect | not with NR (MP02), protected hemoglobin | neither NR (MP-02) nor NR-triacetate (MP-39) at any concentration tested, reduced H2O2-induced hemolysis |  |  |  |  |  |  |  |  | 
2 |  | CC(=O)OC[C@H]1O[C@@H]([n+]2cccc(C(N)=O)c2)[C@H](OC(C)=O)[C@@H]1OC(C)=O.O=S(=O)([O-])C(F)(F)F [NR-triacetate, 3-Carboxamide-N-(2,3,5-tri-O-acetyl-β-D-ribofuranosyl)pyridinium Triflate, reference compound] |  |  |  |  |  | neither NR (MP-02) nor NR-triacetate (MP-39) at any concentration tested, reduced H2O2-induced hemolysis |  |  |  |  |  |  |  |  | 
3 |  | CC(=O)OC[C@H]1O[C@@H](N2C=CCC(C(N)=O)=C2)[C@H](OC(C)=O)[C@@H]1OC(C)=O [NRH-triacetate, N-(2,3,5-tri-O-acetyl-β-D-ribofuranosyl)dihydronicotinamide] |  |  |  |  |  | reduced H2O2-induced hemolysis | reduced production of pro-inflammatory cytokines | significantly induced | Most of both NRH and NRH-triacetate remained intact | about 50% | much more stable | reduced cell death | significantly induced | reduced production of pro-inflammatory cytokines | reduced cell death
